In ChEMBL document CHEMBL2021800, “Aberrant cyclization affords a C-6 modified cyclic adenosine 5'-diphosphoribose analogue with biological activity in Jurkat T cells” (J Med Chem, 2012):
The source made the active and inactive calls. The rule behind the calls is not given here.

What was measured:
Assay type in all cases: functional, cell-based
Jurkat [1] = assay: Inhibition of cADPR-induced Ca2+ release in human Jurkat T cells using fluo-3 dye by spectrofluorometry analysis
Jurkat [2] = assay: Induction of Ca2+ release in human Jurkat T cells at 10 to 30 uM using fluo-3 dye by spectrofluorometry analysis
Jurkat [3] = assay: Induction of Ca2+ release in human Jurkat T cells at 100 to 300 uM using fluo-3 dye by spectrofluorometry analysis
Jurkat [4] = assay: Inhibition of N1-cIDPR-induced Ca2+ release in human Jurkat T cells using fluo-3 dye by spectrofluorometry analysis

- IC50 (Jurkat [1]): 30 µM
- IC50 (Jurkat [4]): 3000 nM
SMILES: O=P1(O)OC[C@H]2O[C@H]([C@H](O)[C@@H]2O)n2cnc3c(ncn3[C@@H]3O[C@H](COP(=O)(O)O1)[C@@H](O)[C@H]3O)c2=S
- inhibition (Jurkat [1]): Dose-dependent effect
- Activity (Jurkat [2]): inactive
- Activity (Jurkat [3]): Active
- inhibition (Jurkat [4]): Dose-dependent effect
